Test results as given in ChEMBL document CHEMBL1136245, “HIV-1 protease inhibitors with picomolar potency against PI-resistant HIV-1 by modification of the P1' substituent” (Bioorg Med Chem Lett, 2003).
≈ marks a conversion by molar mass, not a printed value.

Assays:
MT4 [1] = experiment: Antiviral activity of compound against spread of wild type V-18C virus infection in MT-4 human T-lymphoid cells; assay type: functional; conditions: read-out: CIC95
MT4 [2] = experiment: Antiviral activity of compound against spread of wild type NL4-3 virus infection in MT-4 human T-lymphoid cells; assay type: functional; conditions: read-out: CIC95
MT4 [3] = experiment: Antiviral activity of compound against spread of wild type Q-60C virus infection in MT-4 human T-lymphoid cells; assay type: functional; conditions: read-out: CIC95
[4] = target: T1, Human immunodeficiency virus type 1 protease (Human immunodeficiency virus 1, UniProt Q72874); experiment: Inhibitory activity of compound against HIV-1 protease in HIV-1 (K-60C) strain
[5] = Solubility of compound at pH 5.2; assay type: physicochemical; conditions: buffer
MT4 [6] = experiment: Antiviral activity of compound against spread of wild type K-60C virus infection in MT-4 human T-lymphoid cells; assay type: functional; conditions: read-out: CIC95
[7] = target: T1, Human immunodeficiency virus type 1 protease; experiment: Inhibitory activity of compound against HIV-1 protease in wild type NL4-3 virus
[8] = target: T1, Human immunodeficiency virus type 1 protease; experiment: Inhibitory activity of compound against HIV-1 protease in HIV-1 (V-18C) strain
Cytochrome P450 2D6 [9] = target: T2, Cytochrome P450 2D6 (Homo sapiens, UniProt P10635); experiment: (§1) Inhibition of human liver microsome Cytochrome P450 2D6; assay type: ADME
Cytochrome P450 3A4 = Cytochrome P450 3A4 (Homo sapiens, UniProt P08684); experiment: Inhibition of human liver microsome Cytochrome P450 3A4; assay type: ADME, microsomes
Cytochrome P450 2C9 [10] = target: T3, Cytochrome P450 2C9 (Homo sapiens, UniProt P11712); experiment: Inhibition of human liver microsome Cytochrome P450 2C9; assay type: ADME, microsomes
[11] = Oral bioavailability in dog (dose 5 mg/kg p.o. and 2 mg/kg i.v.); assay type: ADME, organism-based, Canis lupus familiaris; conditions: in vivo
[12] = Half life of compound after both po and iv administration at a dose of 5 mg/kg and 2 mg/kg resp in dog; assay type: ADME, organism-based, Canis lupus familiaris; conditions: in vivo
[13] = target: T1, Human immunodeficiency virus type 1 protease; experiment: Inhibitory activity of compound against HIV-1 protease in HIV-1 (Q-60C) strain
[14] = Cmax of compound after both po and iv administration at a dose of 5 mg/kg and 2 mg/kg resp in dog; assay type: ADME, organism-based, Canis lupus familiaris; conditions: in vivo
[15] = Area under curve of compound after both po and iv administration at a dose of 5 mg/kg and 2 mg/kg resp in dog; assay type: ADME, organism-based, Canis lupus familiaris; conditions: in vivo
[16] = Clearance of compound after both po and iv administration at a dose of 5 mg/kg and 2 mg/kg resp in dog; assay type: ADME, organism-based, Canis lupus familiaris; conditions: in vivo
Cytochrome P450 2D6 [17] = target: T2, Cytochrome P450 2D6; experiment: as §1; assay type: ADME, microsomes
Cytochrome P450 2C9 [18] = target: T3, Cytochrome P450 2C9; experiment: Inhibition of huamn liver microsome Cytochrome P450 2C9; assay type: ADME, microsomes

T2 sequence (P10635 whole entry): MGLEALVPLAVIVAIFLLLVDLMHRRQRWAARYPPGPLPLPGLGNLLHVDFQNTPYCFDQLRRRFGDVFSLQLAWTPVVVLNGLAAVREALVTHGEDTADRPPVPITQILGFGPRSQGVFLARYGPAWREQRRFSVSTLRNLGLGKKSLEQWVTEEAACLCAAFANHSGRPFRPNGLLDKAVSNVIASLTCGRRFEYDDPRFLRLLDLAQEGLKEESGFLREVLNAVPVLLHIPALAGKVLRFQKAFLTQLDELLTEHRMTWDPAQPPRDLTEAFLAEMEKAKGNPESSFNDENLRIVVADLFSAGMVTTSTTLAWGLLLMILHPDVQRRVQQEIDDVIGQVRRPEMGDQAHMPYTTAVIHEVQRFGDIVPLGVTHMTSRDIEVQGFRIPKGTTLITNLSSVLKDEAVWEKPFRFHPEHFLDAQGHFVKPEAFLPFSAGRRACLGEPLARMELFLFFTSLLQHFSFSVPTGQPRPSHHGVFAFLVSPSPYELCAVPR
T3 sequence (P11712 whole entry): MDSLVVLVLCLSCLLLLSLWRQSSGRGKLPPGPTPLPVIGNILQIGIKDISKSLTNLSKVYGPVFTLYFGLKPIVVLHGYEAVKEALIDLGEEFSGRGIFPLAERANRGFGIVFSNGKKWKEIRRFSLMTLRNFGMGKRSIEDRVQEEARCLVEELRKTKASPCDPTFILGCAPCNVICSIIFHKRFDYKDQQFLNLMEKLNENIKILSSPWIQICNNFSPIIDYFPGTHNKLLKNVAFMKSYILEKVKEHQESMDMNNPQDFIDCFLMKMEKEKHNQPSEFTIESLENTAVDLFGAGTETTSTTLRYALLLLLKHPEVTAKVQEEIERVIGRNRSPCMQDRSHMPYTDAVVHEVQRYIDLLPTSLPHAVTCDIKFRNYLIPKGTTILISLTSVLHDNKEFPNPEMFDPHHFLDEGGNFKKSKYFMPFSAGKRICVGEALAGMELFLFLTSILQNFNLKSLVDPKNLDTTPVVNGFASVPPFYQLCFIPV
Cytochrome P450 3A4, sequence (P08684 whole entry): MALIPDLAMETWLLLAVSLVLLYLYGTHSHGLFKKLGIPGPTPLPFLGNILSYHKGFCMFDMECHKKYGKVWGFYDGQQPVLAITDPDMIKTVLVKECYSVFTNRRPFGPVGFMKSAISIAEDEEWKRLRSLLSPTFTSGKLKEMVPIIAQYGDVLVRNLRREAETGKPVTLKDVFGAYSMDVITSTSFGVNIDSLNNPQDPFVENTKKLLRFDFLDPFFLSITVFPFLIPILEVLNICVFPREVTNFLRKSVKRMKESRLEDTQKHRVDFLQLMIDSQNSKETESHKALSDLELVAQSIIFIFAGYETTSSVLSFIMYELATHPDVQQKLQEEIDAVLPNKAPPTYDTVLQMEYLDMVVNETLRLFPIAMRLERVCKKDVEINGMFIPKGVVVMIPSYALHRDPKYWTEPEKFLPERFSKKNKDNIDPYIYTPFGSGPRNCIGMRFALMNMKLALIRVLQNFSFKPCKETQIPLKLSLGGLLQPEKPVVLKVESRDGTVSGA

Row | SMILES | IC95 (MT4 [1]) | IC95 (MT4 [2]) | IC95 (MT4 [3]) | IC50 [4] | solubility [5] | IC95 (MT4 [6]) | IC50 [7] | IC50 [8] | IC50 (Cytochrome P450 2D6 [9]) | IC50 (Cytochrome P450 3A4) | IC50 (Cytochrome P450 2C9 [10]) | bioavailability [11] | half-life [12] | IC50 [13] | Cmax [14] | AUC [15] | clearance [16] | IC50 (Cytochrome P450 2D6 [17]) | IC50 (Cytochrome P450 2C9 [18])
1 | O=C(N[C@H]1c2ccccc2OC[C@H]1O)[C@H](Cc1ccncc1)C[C@H](O)CN1CCN(Cc2cc3cccc(Cl)c3o2)C[C@H]1C(=O)NCC(F)(F)F | ≤ 8 nM | ≤ 8 nM | 125 nM | 0.92 nM | < 10 µg/mL | 62 nM | 0.03 nM | 0.14 nM |  |  |  |  |  |  |  |  |  |  | 
2 | O=C(N[C@H]1c2ccccc2OC[C@H]1O)[C@H](Cc1cccnc1)C[C@H](O)CN1CCN(Cc2cc3cccc(Cl)c3o2)C[C@H]1C(=O)NCC(F)(F)F | ≤ 8 nM | 10 nM | 31 nM |  | 10 µg/mL (≈ 13.7 µM) | 31 nM | 0.02 nM | 0.12 nM | 8800 nM | 500 nM | 27300 nM |  |  |  |  |  |  |  | 
3 | O=C(N[C@H]1c2ccccc2OC[C@H]1O)[C@H](Cc1ccncc1)C[C@H](O)CN1CCN(Cc2ccc(-c3ccccc3)o2)C[C@H]1C(=O)NCC(F)(F)F | 31 nM | 15 nM | 31 nM | 0.11 nM | 40 µg/mL (≈ 55.4 µM) | ≤ 8 nM | 0.04 nM | 0.34 nM |  | 1500 nM |  | 2% | 1.07 h | 0.2 nM | 210 nM | 0.16 µM·h | 17.4 mL/min/kg | 14900 nM | 
4 | CC(C)(C)NC(=O)[C@@H]1CN(Cc2cccnc2)CCN1C[C@@H](O)C[C@@H](Cc1ccccc1)C(=O)N[C@H]1c2ccccc2C[C@H]1O | > 1000 nM | 50 nM | > 1000 nM |  |  | > 1000 nM |  |  |  |  |  |  |  |  |  |  |  |  | 
5 | O=C(N[C@H]1c2ccccc2OC[C@H]1O)[C@H](Cc1ccccc1)C[C@H](O)CN1CCN(Cc2ccc(-c3ccncc3)o2)C[C@H]1C(=O)NCC(F)(F)F | 31 nM | ≤ 8 nM | 31 nM | 0.6 nM | 670 µg/mL (≈ 928 µM) | 15 nM |  | 1.3 nM |  |  |  |  | 1 h | 0.8 nM |  | 2.58 µM·h | 24.5 mL/min/kg |  | 
6 | O=C(N[C@H]1c2ccccc2OC[C@H]1O)[C@H](Cc1cccnc1)C[C@H](O)CN1CCN(Cc2ccc(-c3ccccc3)o2)C[C@H]1C(=O)NCC(F)(F)F | ≤ 8 nM | ≤ 8 nM | ≤ 8 nM | 0.06 nM | 10 µg/mL (≈ 13.9 µM) | ≤ 8 nM | 0.02 nM | 0.15 nM |  | 430 nM |  | 1% | 1.23 h | 0.07 nM | 110 nM | 0.08 µM·h | 20.5 mL/min/kg | 15600 nM | 83900 nM
7 | O=C(N[C@H]1c2ccccc2OC[C@H]1O)[C@H](Cc1cccnc1)C[C@H](O)CN1CCN(Cc2cc3ccccc3o2)C[C@H]1C(=O)NCC(F)(F)F | 31 nM | 15 nM | 125 nM | 3.7 nM | 310 µg/mL (≈ 446 µM) | 125 nM | 0.04 nM | 1.3 nM |  | 480 nM |  | 24% | 0.867 h | 2.7 nM | 3360 nM | 1.94 µM·h | 15 mL/min/kg | 19000 nM | 48800 nM
8 | O=C(N[C@H]1c2ccccc2OC[C@H]1O)[C@H](Cc1ccncc1)C[C@H](O)CN1CCN(Cc2cc3ccccc3o2)C[C@H]1C(=O)NCC(F)(F)F |  | 15 nM | 250 nM | 10 nM | 280 µg/mL (≈ 402 µM) |  | 0.1 nM | 2.2 nM |  | 2200 nM |  | 4% | 1.7 h |  | 380 nM | 0.22 µM·h | 22.5 mL/min/kg | 3600 nM | 
